According to patent publication US11872224B2, “Amorphous solid dispersion formulation” (TaiGen Biotechnology Co., Ltd., priority 2020, dated 2024):
Converted amounts (≈) assume the structure as drawn.

Test: Dissolution assessment: solubility in FaSSIF
Assay type: physicochemical
Conditions: FaSSIF pH 6.5, 37° C., 600 rpm, target concentration 1.0 mg/mL
Procedure: An amount of Compound A (about 6 mg) and an amorphous solid dispersion (equivalent to around 6 mg Compound A) were weighed into separate 8 ml bottle, and 6 ml FaSSIF (Fasted state simulated intestinal fluid) was added (target concentration 1.0 mg/mL). The suspensions were stirred using a thermomixer at 37° C. under 600 rpm and 200 μL of suspensions were withdrawn at pre-set time intervals (such as 5 min) and then centrifuged at 14000 rpm for 4 min. Then, 100 μL of supernatant was diluted with 500 μL ACN (Acetonitrile) to prevent precipitation, and was analyzed by HPLC.
FaSSIF was prepared by following steps: 1) Place 0.1024 g sodium hydroxide, 0.7518 g sodium dihydrogen phosphate anhydrous and 1.5470 g sodium chloride in a 250 mL volumetric flask, add about 225 mL water, and adjust the pH to 6.5 with 1 N sodium hydroxide or 1N hydrochloric acid. Make up to volume (250 mL) with pure water. 2) Place and dissolve 0.4480 g SIF Powder Original with 100 mL of buffer (from step 1) in a 200 mL volumetric flask, add water to volume and mix well.

Compound: COC(=O)OCOc1c2n(ccc1=O)N([C@H]1c3ccccc3CSc3c1ccc(F)c3F)CC1(CC1)C2=O [Sample 1, [1-((11S)-7,8-difluoro(6H,11H-dibenzo[c,f]thiepin-11-yl))-4,6-dioxospiro[1,2,3,9-tetrahydropyridino[1,2-e]pyridazine-3,1′-cyclopropane]-5-yloxy]methyl methoxyformate]
- Solubility 5 min (5 min): 4.95 µg/mL (≈ 9.16 µM)
- Solubility 15 min (15 min): 4.89 µg/mL (≈ 9.05 µM)
